According to patent US20120219615A1, “Therapeutic Use of a TLR Agonist and Combination Therapy” (The Trustees of the University of Pennsylvania, priority 2010, published 2012):

Molecular target: T1, TLR8 (Homo sapiens, UniProt Q9NR97)
T1 construct: assessed in peripheral blood mononuclear cells (PBMCs) from 15 healthy donors; endogenous in cells; host or cells: PBMCs from 15 healthy donors
T1 sequence (Q9NR97 27-1041): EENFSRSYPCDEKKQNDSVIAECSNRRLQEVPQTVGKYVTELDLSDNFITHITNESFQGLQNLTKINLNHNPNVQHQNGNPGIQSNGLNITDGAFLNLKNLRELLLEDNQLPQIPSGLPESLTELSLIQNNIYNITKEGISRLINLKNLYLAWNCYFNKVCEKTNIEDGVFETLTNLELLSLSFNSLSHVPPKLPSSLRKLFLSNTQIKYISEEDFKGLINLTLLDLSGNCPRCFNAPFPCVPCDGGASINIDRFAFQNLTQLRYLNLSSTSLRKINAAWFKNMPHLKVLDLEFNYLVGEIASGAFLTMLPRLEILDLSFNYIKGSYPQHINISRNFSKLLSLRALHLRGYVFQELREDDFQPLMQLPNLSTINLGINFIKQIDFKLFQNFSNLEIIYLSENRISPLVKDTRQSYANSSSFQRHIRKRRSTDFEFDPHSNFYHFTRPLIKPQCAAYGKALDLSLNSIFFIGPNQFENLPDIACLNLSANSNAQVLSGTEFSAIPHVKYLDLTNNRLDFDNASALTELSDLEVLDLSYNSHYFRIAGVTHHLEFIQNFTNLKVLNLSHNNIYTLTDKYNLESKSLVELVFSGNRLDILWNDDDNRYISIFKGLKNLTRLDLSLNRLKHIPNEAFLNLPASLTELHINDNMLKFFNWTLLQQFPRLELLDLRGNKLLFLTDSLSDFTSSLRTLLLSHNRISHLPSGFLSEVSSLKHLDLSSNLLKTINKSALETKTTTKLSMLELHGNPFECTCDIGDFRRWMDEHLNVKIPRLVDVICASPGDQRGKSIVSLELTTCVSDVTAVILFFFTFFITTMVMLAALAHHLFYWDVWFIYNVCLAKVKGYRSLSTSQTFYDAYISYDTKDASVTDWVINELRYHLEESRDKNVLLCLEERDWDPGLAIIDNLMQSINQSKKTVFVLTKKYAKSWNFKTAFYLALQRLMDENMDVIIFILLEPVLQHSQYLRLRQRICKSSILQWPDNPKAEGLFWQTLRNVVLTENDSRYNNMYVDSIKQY
Experiment: HEK293 cells transfected with TLR8 and NF-κB driven reporter gene
Format: cell-based
Details: HEK293 transfectants
Experimental: The half-maximal effective concentration (EC50) for VTX-2337 activation of TLR8 and TLR7 was assessed in peripheral blood mononuclear cells (PBMCs) from 15 healthy donors and also in HEK293 cells transfected with TLR8 or TLR7 and an NF-κB driven reporter gene. […] Also it was observed that VTX-2337 had no activity on TLR2, TLR3, TLR4, TLR5, TLR6, or TLR9 at concentrations up to 25 μM.

CCCN(CCC)C(=O)C1=Cc2ccc(-c3ccc(C(=O)N4CCCC4)cc3)cc2N=C(N)C1 [VTX-2337, 2-amino-N,N-dipropyl-8-(4-(pyrrolidine-1-carbonyl)phenyl)-3H-benzo[b]azepine-4-carboxamide] showed an EC50 of 70 nM.
